Legend:
[1] = test system: lung cancer in patients with idiopathic pulmonary fibrosis; experiment: Lung cancer prevention in idiopathic pulmonary fibrosis patients allocated to pirfenidone or non-pirfenidone group; assay type: in vivo, human; conditions: for Effect on risk of incidence of lung cancer: logistic regression analysis; for Accumulated incidence of lung cancer: FIG. 1
Description: Thus, the present inventors evaluated the cancer chemoprevention effect of pirfenidone in idiopathic pulmonary fibrosis patients who are said to have a high risk factor of carcinogenesis. […] This efficacy was not explained by its effectiveness on idiopathic pulmonary fibrosis, and is therefore a novel activity of pirfenidone.
87 in the pirfenidone group (83 idiopathic pulmonary fibrosis, four nonspecific interstitial pneumonia) and 232 in the non-pirfenidone group (213 idiopathic pulmonary fibrosis, 18 nonspecific interstitial pneumonia, and one patient of desquamative interstitial pneumonia). The patients in the pirfenidone group received pirfenidone for 12-75 months (an average of 27.9±14.7 months). As a result, the incidence of lung cancer in the pirfenidone group was 2, whereas in the non-pirfenidone group it was 49. The duration of observation period in the pirfenidone group was 65.5±42.6 months, whereas in the control group it was 57.1±37.5 months. In addition, among 73 deaths in the non-pirfenidone group, 11 (4.7%) patients died by lung cancer, whereas among 29 deaths in the pirifenidone group, one (1.2%) patient died by lung cancer.
The accumulated incidences of lung cancer in patients with idiopathic pulmonary fibrosis not treated with pirfenidone after 1, 5, and 10 years were 0.9%, 18.3%, and 26.8%, whereas in patients treated with pirfenidone after 1, 5, and 10 years the accumulated incidences of lung cancer were 0%, 2.5%, and 6.4%.
The risk factors of incidence of lung cancer were analyzed using logistic regression analysis. As for the variables, backgrounds such as age, sex, number of packs of cigarettes smoked per day by the number of years the person has smoked (pack year), current smoking, pulmonary emphysema, stage of idiopathic pulmonary fibrosis, lung functions (% vital capacity(VC), and forced expiratory volume in 1 second as percent of forced vital capacity; FEV 1%), respiratory function (carbon monoxide lung diffusing capacity; % DLCO), and arterial oxygen partial pressure (PAO2); home oxygen therapy (use/no use), pirfenidone (use/no use), prednisolone (use/no use), N-acetyl cysteine (use/no use) and so forth were used. […] Then, the factors affecting the incidence of lung cancer were analyzed using multivariate Cox proportion hazard mode. Four variables were found as affecting factors. […] This supports the lung cancer protective efficacy of pirfenidone.

[2] = test system: malignant glioma cells; conditions: non-patent document 4; cited from earlier work
[3] = test system: acute exacerbation in patients with idiopathic pulmonary fibrosis; conditions: pre-treatment; non-patent document 6; cited from earlier work
[4] = test system: fibrosis caused by pancreatic cancer; conditions: non-patent document 5; cited from earlier work

SMILES | Effect on risk of incidence of lung cancer ([1]; use/no use) | Proliferation of malignant glioma cells [2] | Acute exacerbation caused by lung cancer surgery [3] | Death by cancer (lung cancer), % ([1]; 87 patients in pirfenidone group) [%] | Death by cancer (lung cancer), % ([1]; 87 patients in pirfenidone group, listed as pirifenidone) [%] | Incidence of lung cancer, % ([1]; 87 patients in pirfenidone group, observation 65.5 ± 42.6 months, treatment 12-75 months) [%] | Accumulated incidence of lung cancer ([1]; after 1 year) [%] | Accumulated incidence of lung cancer ([1]; after 5 years) [%] | Accumulated incidence of lung cancer ([1]; after 10 years) [%] | Effect on risk of lung cancer ([1]; multivariate Cox proportion hazard model, in words) | Hazard ratio, risk of lung cancer ([1]; multivariate Cox proportion hazard model, use/no use) | Effect on fibrosis caused by pancreatic cancer [4]
CC(=O)N[C@@H](CS)C(=O)O [N-acetyl cysteine] | significantly decrease the risk factors of incidence of lung cancer | – | – | – | – | – | – | – | – | – | – | –
Cc1ccc(=O)n(-c2ccccc2)c1 [Pirfenidone, 5-methyl-1-phenyl-2-(1H)-pyridone] | significantly decrease the risk factors of incidence of lung cancer | inhibited proliferation | acute exacerbation was inhibited | 1.1 | 1.2 | 2.3 | 0 | 2.5 | 6.4 | only factor decreasing the risk of lung cancer | 0.128 | inhibitory effects on fibrosis

— patent US20170224667A1, “CANCER CHEMOPREVENTIVE AGENT” (KDL, Inc., priority 2014, published 2017)
